One assay has as its system HL-60 cells. The assay can be described thus: Antiproliferation activity against tumor cells (MTT, absorbance at 590 nm). It is filed as cell-based. Here is the method:
The Samples 1 to 3 were separately sterilized by filtration and appropriately diluted with sterile water. 10 μl of each dilution was placed in a well of a 96-well microtiter plate. 90 μl of RPMI 1640 medium (Nissui) containing 10% fetal bovine serum (Gibco), which had been treated at 56° C. for 30 minutes, and 5,000 HL-60 cells (ATCC CCL-240) was added thereto. The plate was incubated at 37° C. for 48 hours in the presence of 5% CO2. The cell morphology was examined under an optical microscope. 10 μl of 5 mg/ml 3-(4,5-dimethylthiazol-2-yl)-2,5-diphenyltetrazolium bromide (Sigma) solution in phosphate buffered saline was further added thereto and the incubation was continued for additional 4 hours. 100 μl of 2-propanol containing 0.04 N HCl was added to the well and the mixture was thoroughly stirred. The absorbance at 590 nm was measured to determine the cell growth level.

The next assay concerns spleen lymphocytes. The experiment in a line: Lymphocyte activation inhibition test. The assay is classed as cell-based, mouse. The note with it: 3H-thymidine uptake. From the text: A ddY mouse (female, 7 weeks old, weighing about 25 g) was purchased from Nippon SLC and pre-bred for 1 week before using in experiments. A spleen was taken out from the mouse, finely minced and suspended in RPMI-1640 medium containing 10% fetal bovine serum (HyClone) to obtain a single cell suspension. Adhesive cells adhered to a plastic Petri dish were removed and non-adhesive cells were used as spleen lymphocytes. The spleen lymphocytes were suspended in RPMI 1640 medium containing 10% fetal bovine serum at a concentration of 2×10^6/ml. 200 μl of the suspension was seeded into each well of a 96-well microtiter plate. DGE at a varying concentration was added to each well other than the control well. Furthermore, 5 μg of Con A (Nacalai Tesque) was added to each well. The plate was incubated at 37° C. for two days in the presence of 5% CO2. 37 kBq of ^3H-thymidine (Daiichi Pure Chemicals) was added to each well to pulse-label the cells on the day before the completion of the cultivation. After cultivation, the cells were harvested on a glass filter to measure the radioactivity.

Another assay relates to α-glucosidase from yeast. The assay can be described thus: α-Glucosidase inhibition test (yeast enzyme). It is filed as biochemical. The note with it: for Remaining activity: activity without test sample = 100%; for Absorbance (OD 410 nm): without DGE 0.444. Here is the method:
(1) The activity of inhibiting α-glucosidase of DGE was measured by reacting p-nitrophenyl-α-D-glucopyranoside, a chromogenic substrate for α-glucosidase, with α-glucosidase from yeast and calorimetrically quatifying 4-nitrophnol released by hydrolysis. Briefly, 10 μl of α-glucosidase solution [40 mU/ml, derived from S. cerevisiae, Sigma, dissolved in 10 mM phosphate buffer (pH 7.2 at 37° C.)] and 10 μl of a solution containing a test sample dissolved in 10 mM phosphate buffer (pH 7.2 at 37° C.) were mixed. 80 μl of a 1.5 mg/ml substrate solution [Sigma, dissolved in 10 mM phosphate buffer (pH 7.2 at 37° C.) was added thereto to initiate the reaction. After reacting at 37° C. for 40 minutes, the absorbance at 410 nm was measured (Shimadzu uv2200). The remaining activity therein was calculated defining the activity without the test sample as 100%.

In assay [1] the test system is Pseudomonas aeruginosa IFO3080. The assay can be described thus: Antimicrobial activity test. It is filed as cell-based. The note with it: Bacterium 4, 24 hours. Here is the method:
(§1) The antimicrobial activities of DGE against Escherichia coli W3110 (Bacterium 1), Salmonella typhimurium LT2 (Bacterium 2), Bacillus subtilis IFO3021 (Bacterium 3), Pseudomonas aeruginosa IFO3080 (Bacterium 4) and Streptococcus mutans GS5 (Bacterium 5) were examined as follows.
(§2) The Bacteria 1 to 4 were cultured overnight in L-broth. The cultures were diluted to a concentration of about 2×10^5 cells/180 μl with Sensitive Bouillon medium (Nissui) base on the turbidity. The Bacterium 5 was cultured overnight in Brain Heart Infusion medium. The culture was diluted to a concentration of about 2×10^5 cells/180 μl with Brain Heart Infusion medium based on the turbidity. 180 μl of each bacterial dilution was placed in each well of a 96-well microtiter plate. On the other hand, the respective bacterial dilutions were further diluted and spread onto plates of L-broth or Brain Heart Infusion medium. The plates were incubated at 37° C. overnight. The resulting colonies were counted to determine the stating viable cell numbers.
(§3) A 14.4 mg/ml DGE solution was diluted every 2-folds to prepare serial dilutions. 20 μl each of the dilutions was placed in the well in which the bacterial dilution had been placed. The cells were cultured at 37° C. for 24 hours without shaking. After cultivation, the turbidity of each culture was measured.
(§4) Furthermore, the culture from the well for which the growth of bacterial cells was not observed was spread onto plates. After the plates were incubated at 37° C. overnight, the colony number was counted to determine the viable cell number. […] The minimal growth-inhibitory concentrations and the minimal bacteriocidal concentrations of DGE for the Bacteria 1 to 5 were determined as shown in Table 2.

The test system of a further assay is Escherichia coli W3110. The assay can be described thus: Antimicrobial activity test. It is filed as cell-based. The note with it: Bacterium 1, 24 hours. Here is the method: as §1, §2, §3, §4
Assay [2] relates to Salmonella typhimurium LT2. The assay can be described thus: Antimicrobial activity test. The assay is classed as cell-based. The note with it: Bacterium 2, 24 hours. How it is done:
as §1, §2, §3, §4

The subject of the next assay is Streptococcus mutans GS5. The experiment in a line: Antimicrobial activity test. The assay is classed as cell-based. The note with it: Bacterium 5, 24 hours. Here is the method: as §1, §2, §3, §4
For assay [3], the system named is Bacillus subtilis IFO3021. The assay can be described thus: Antimicrobial activity test. It is filed as cell-based. The note with it: Bacterium 3, 24 hours. How it is done:
as §1, §2, §3, §4

Values after ≈ are worked out from the molar mass of the structure shown.

As to “5-L-glutathion-S-yl-2-hydroxy-3,7-dioxabicyclo[2.2.2]octan-1-ol [DGE-GSH]”, in the assay on HL-60 cells (48 hours, absorbance at 590 nm), the “antiproliferation activity against tumor cells” value is listed as “inhibition of cell growth”. Besides, in the assay with HL-60 cells (half absorbance at 590 nm compared with water control), the “GI50, the concentration that results in 50% growth inhibition” value is listed as “about 48.7 μg/ml”. For the same molecule, in the assay on HL-60 cells (optical microscope), the “formation of apoptotic bodies” value is on record as “apoptotic bodies were observed”.
`O=C1C=CC(CO)OC1O` [DGE, L-glycero-1,5-epoxy-1αβ,6-dihydroxy-cis-hex-3-en-2-one]: in the assay with spleen lymphocytes (Con A), the “inhibitory activity against lymphocyte proliferation activated by stimulation with mitogen” value was “in a dose-dependent manner”. For the same molecule, in the assay with spleen lymphocytes (Con A-stimulated spleen lymphocytes), the “concentration that almost completely inhibits the proliferation” value was 0.3 µg/mL. In addition, the Remaining activity came to 98% in the assay with α-glucosidase from yeast (DGE added 5 μM); 90% in the assay with α-glucosidase from yeast (DGE added 50 μM); 50% in the assay on α-glucosidase from yeast (DGE added 500 μM); 26% with α-glucosidase from yeast (DGE added 1000 μM); 19% in the assay on α-glucosidase from yeast (DGE added 5000 μM). Also, the “Absorbance (OD 410 nm)” value is listed as 0.433 with α-glucosidase from yeast (DGE added 5 μM); 0.401 in the assay on α-glucosidase from yeast (DGE added 50 μM); 0.221 in the assay with α-glucosidase from yeast (DGE added 500 μM); 0.114 in the assay on α-glucosidase from yeast (DGE added 1000 μM); 0.083 in the assay on α-glucosidase from yeast (DGE added 5000 μM). The IC50 at α-glucosidase from yeast (substrate p-nitrophenyl-α-D-glucopyranoside, read-out: concentration of DGE that inhibits α-glucosidase activity by 50% (IC50)) came to 500 µM. The Minimal bacteriocidal concentration in assay [1] turned out to be 720 µg/mL; in the assay with Escherichia coli W3110, 720 µg/mL; in assay [2] it was 720 µg/mL; in the assay on Streptococcus mutans GS5 it was 180 µg/mL; in assay [3], 720 µg/mL. In addition, the MIC in assay [1] (Pseudomonas aeruginosa, IFO3080, read-out: Minimal growth-inhibitory concentration) turned out to be 360 µg/mL (≈ 2500 µM); in the assay on Escherichia coli W3110 (Escherichia coli, W3110, read-out: Minimal growth-inhibitory concentration) it was 360 µg/mL (≈ 2500 µM); in assay [2] (Salmonella enterica, TYPHIMURIUM, read-out: Minimal growth-inhibitory concentration) it was 360 µg/mL (≈ 2500 µM); with Streptococcus mutans GS5 (Streptococcus mutans, GS5, read-out: Minimal growth-inhibitory concentration) it was 90 µg/mL (≈ 624 µM); in assay [3] (Bacillus subtilis, IFO3021, read-out: Minimal growth-inhibitory concentration), 360 µg/mL (≈ 2500 µM).

The values are drawn from patent publication US6531148B1, “Therapeutic agents” (Takara Shuzo Co., Ltd., priority 1998, dated 2003).
